Data as given in the NIST ThermoML archive (doi:10.1021/je9003178).
Numbers after ± are expanded uncertainties.

Assay: activity coefficient (dimensionless); of the first substance listed, at infinite dilution; xn = mol fraction of the nth substance listed
Conditions: Liquid, Chromatography, x1 = 0

| Structure (SMILES) | activity coefficient (322.65 K) | activity coefficient (343.85 K) | activity coefficient (352.65 K) | activity coefficient (332.85 K) | activity coefficient (343.15 K) |
| --- | --- | --- | --- | --- | --- |
| CCCCCCC [heptane] + CCCCCC[N+](C)(C)C.O=S(=O)([N-]S(=O)(=O)C(F)(F)F)C(F)(F)F | 13.5 ± 0.62 | 12.3 ± 0.57 | 11.9 ± 0.55 |  |  |
| CCCCCCC [heptane] + CCn1cc[n+](C)c1.N#CN=C=[N-] | 183 ± 8.7 |  |  | 159 ± 7.5 | 139 ± 6.6 |
| C=CCCCC [hex-1-ene] + CCCCCC[N+](C)(C)C.O=S(=O)([N-]S(=O)(=O)C(F)(F)F)C(F)(F)F | 5.8 ± 0.27 | 5.55 ± 0.25 | 5.58 ± 0.26 |  |  |
| C=CCCCC [hex-1-ene] + CCn1cc[n+](C)c1.N#CN=C=[N-] | 43.6 ± 2 |  |  | 41.6 ± 1.9 | 39.9 ± 1.9 |
| CCCCCC [hexane] + CCCCCC[N+](C)(C)C.O=S(=O)([N-]S(=O)(=O)C(F)(F)F)C(F)(F)F | 9.81 ± 0.45 | 9.02 ± 0.41 | 8.85 ± 0.41 |  |  |
| CCCCCC [hexane] + CCn1cc[n+](C)c1.N#CN=C=[N-] | 111 ± 5.2 |  |  | 99.6 ± 4.7 | 89.5 ± 4.2 |
| C=O [methanal] + CCCCCC[N+](C)(C)C.O=S(=O)([N-]S(=O)(=O)C(F)(F)F)C(F)(F)F | 0.228 ± 0.037 | 0.272 ± 0.036 | 0.311 ± 0.035 |  |  |
| C=O [methanal] + CCn1cc[n+](C)c1.N#CN=C=[N-] | 0.32 ± 0.04 |  |  | 0.35 ± 0.04 | 0.37 ± 0.03 |
| CO [methanol] + CCCCCC[N+](C)(C)C.O=S(=O)([N-]S(=O)(=O)C(F)(F)F)C(F)(F)F | 1.16 ± 0.035 | 0.971 ± 0.025 | 0.956 ± 0.026 |  |  |
| CO [methanol] + CCn1cc[n+](C)c1.N#CN=C=[N-] | 0.44 ± 0.03 |  |  | 0.42 ± 0.03 | 0.41 ± 0.03 |
| CC1CCCCC1 [methylcyclohexane] + CCCCCC[N+](C)(C)C.O=S(=O)([N-]S(=O)(=O)C(F)(F)F)C(F)(F)F | 8.67 ± 0.4 | 7.78 ± 0.36 | 7.54 ± 0.35 |  |  |
| CC1CCCCC1 [methylcyclohexane] + CCn1cc[n+](C)c1.N#CN=C=[N-] | 73.9 ± 3.5 |  |  | 67.1 ± 3.1 | 61.3 ± 2.9 |
| CC1CCCC1 [methylcyclopentane] + CCCCCC[N+](C)(C)C.O=S(=O)([N-]S(=O)(=O)C(F)(F)F)C(F)(F)F | 6.61 ± 0.3 | 5.96 ± 0.27 | 5.83 ± 0.27 |  |  |
| CC1CCCC1 [methylcyclopentane] + CCn1cc[n+](C)c1.N#CN=C=[N-] | 50.3 ± 2.4 |  |  | 46.5 ± 2.2 | 43.2 ± 2 |
| C[N+](=O)[O-] [nitromethane] + CCCCCC[N+](C)(C)C.O=S(=O)([N-]S(=O)(=O)C(F)(F)F)C(F)(F)F | 0.975 ± 0.025 | 0.567 ± 0.031 | 0.568 ± 0.031 |  |  |
| C[N+](=O)[O-] [nitromethane] + CCn1cc[n+](C)c1.N#CN=C=[N-] | 0.66 ± 0.03 |  |  | 0.64 ± 0.03 | 0.63 ± 0.03 |
| CCCCCCCCC [nonane] + CCCCCC[N+](C)(C)C.O=S(=O)([N-]S(=O)(=O)C(F)(F)F)C(F)(F)F | 28.9 ± 1.3 | 24.6 ± 1.1 | 23.4 ± 1.1 |  |  |
| CCCCCCCCC [nonane] + CCn1cc[n+](C)c1.N#CN=C=[N-] | 498 ± 24 |  |  | 446 ± 21 | 401 ± 19 |
| CCCCCCCC [octane] + CCCCCC[N+](C)(C)C.O=S(=O)([N-]S(=O)(=O)C(F)(F)F)C(F)(F)F | 19 ± 0.88 | 16.8 ± 0.78 | 16.2 ± 0.75 |  |  |
| CCCCCCCC [octane] + CCn1cc[n+](C)c1.N#CN=C=[N-] | 290 ± 14 |  |  | 260 ± 12 | 234 ± 11 |
| CCCC(C)=O [pentan-2-one] + CCCCCC[N+](C)(C)C.O=S(=O)([N-]S(=O)(=O)C(F)(F)F)C(F)(F)F | 0.612 ± 0.031 | 0.638 ± 0.03 | 0.663 ± 0.03 |  |  |
| CCCC(C)=O [pentan-2-one] + CCn1cc[n+](C)c1.N#CN=C=[N-] | 2.92 ± 0.13 |  |  | 2.93 ± 0.13 | 2.9 ± 0.13 |
| CCC(=O)CC [pentan-3-one] + CCCCCC[N+](C)(C)C.O=S(=O)([N-]S(=O)(=O)C(F)(F)F)C(F)(F)F | 0.563 ± 0.032 | 0.601 ± 0.031 | 0.637 ± 0.03 |  |  |
| CCC(=O)CC [pentan-3-one] + CCn1cc[n+](C)c1.N#CN=C=[N-] | 2.81 ± 0.13 |  |  | 2.84 ± 0.13 | 2.84 ± 0.13 |
| CCCO [propan-1-ol] + CCCCCC[N+](C)(C)C.O=S(=O)([N-]S(=O)(=O)C(F)(F)F)C(F)(F)F | 1.83 ± 0.079 | 1.51 ± 0.058 | 1.41 ± 0.052 |  |  |

| Structure (SMILES) | activity coefficient (322.65 K) | activity coefficient (343.85 K) | activity coefficient (352.65 K) | activity coefficient (332.85 K) | activity coefficient (343.15 K) |
| --- | --- | --- | --- | --- | --- |
| CCCO [propan-1-ol] + CCn1cc[n+](C)c1.N#CN=C=[N-] | 1.07 ± 0.03 |  |  | 1.01 ± 0.03 | 0.97 ± 0.03 |
| CC(C)O [propan-2-ol] + CCCCCC[N+](C)(C)C.O=S(=O)([N-]S(=O)(=O)C(F)(F)F)C(F)(F)F | 1.69 ± 0.07 | 1.39 ± 0.051 | 1.33 ± 0.046 |  |  |
| CC(C)O [propan-2-ol] + CCn1cc[n+](C)c1.N#CN=C=[N-] | 1.2 ± 0.04 |  |  | 1.14 ± 0.03 | 1.09 ± 0.03 |
| CCC=O [propanal] + CCCCCC[N+](C)(C)C.O=S(=O)([N-]S(=O)(=O)C(F)(F)F)C(F)(F)F | 0.508 ± 0.032 | 0.502 ± 0.032 | 0.505 ± 0.032 |  |  |
| CCC=O [propanal] + CCn1cc[n+](C)c1.N#CN=C=[N-] | 1.4 ± 0.05 |  |  | 1.39 ± 0.05 | 1.37 ± 0.05 |
| c1ccncc1 [pyridine] + CCCCCC[N+](C)(C)C.O=S(=O)([N-]S(=O)(=O)C(F)(F)F)C(F)(F)F | 0.336 ± 0.035 | 0.589 ± 0.031 | 0.607 ± 0.031 |  |  |
| c1ccncc1 [pyridine] + CCn1cc[n+](C)c1.N#CN=C=[N-] | 0.4 ± 0.03 |  |  | 1.05 ± 0.03 | 1.07 ± 0.03 |
| ClC(Cl)(Cl)Cl [tetrachloromethane] + CCCCCC[N+](C)(C)C.O=S(=O)([N-]S(=O)(=O)C(F)(F)F)C(F)(F)F | 2.42 ± 0.11 | 2.39 ± 0.11 | 2.42 ± 0.11 |  |  |
| ClC(Cl)(Cl)Cl [tetrachloromethane] + CCn1cc[n+](C)c1.N#CN=C=[N-] | 4.49 ± 0.2 |  |  | 4.61 ± 0.21 | 4.71 ± 0.21 |
| CCCCCCCCCCCCCC [tetradecane] + CCCCCC[N+](C)(C)C.O=S(=O)([N-]S(=O)(=O)C(F)(F)F)C(F)(F)F | 159 ± 7.5 | 101 ± 4.7 | 84.7 ± 4 |  |  |
| CCCCCCCCCCCCCC [tetradecane] + CCn1cc[n+](C)c1.N#CN=C=[N-] | 2500 ± 120 |  |  | 2330 ± 110 | 2190 ± 110 |
| C1CCOC1 [tetrahydrofuran] + CCCCCC[N+](C)(C)C.O=S(=O)([N-]S(=O)(=O)C(F)(F)F)C(F)(F)F | 0.686 ± 0.03 | 0.754 ± 0.029 | 0.808 ± 0.028 |  |  |
| c1ccsc1 [thiophene] + CCCCCC[N+](C)(C)C.O=S(=O)([N-]S(=O)(=O)C(F)(F)F)C(F)(F)F | 0.921 ± 0.026 | 0.92 ± 0.026 | 0.941 ± 0.026 |  |  |
| c1ccsc1 [thiophene] + CCn1cc[n+](C)c1.N#CN=C=[N-] | 1.6 ± 0.06 |  |  | 1.51 ± 0.06 | 1.53 ± 0.06 |
| Cc1ccccc1 [toluene] + CCCCCC[N+](C)(C)C.O=S(=O)([N-]S(=O)(=O)C(F)(F)F)C(F)(F)F | 1.31 ± 0.045 | 1.33 ± 0.046 | 1.38 ± 0.05 |  |  |
| Cc1ccccc1 [toluene] + CCn1cc[n+](C)c1.N#CN=C=[N-] | 4.22 ± 0.19 |  |  | 4.21 ± 0.19 | 4.21 ± 0.19 |
| ClC(Cl)Cl [trichloromethane] + CCCCCC[N+](C)(C)C.O=S(=O)([N-]S(=O)(=O)C(F)(F)F)C(F)(F)F | 0.89 ± 0.027 | 0.929 ± 0.026 | 0.966 ± 0.026 |  |  |
| ClC(Cl)Cl [trichloromethane] + CCn1cc[n+](C)c1.N#CN=C=[N-] | 0.76 ± 0.03 |  |  | 0.81 ± 0.03 | 0.86 ± 0.03 |
| CCCCCCCCCCCCC [tridecane] + CCCCCC[N+](C)(C)C.O=S(=O)([N-]S(=O)(=O)C(F)(F)F)C(F)(F)F | 100 ± 4.7 | 76.2 ± 3.6 | 71.5 ± 3.3 |  |  |
| CCCCCCCCCCCCC [tridecane] + CCn1cc[n+](C)c1.N#CN=C=[N-] | 1940 ± 94 |  |  | 1780 ± 86 | 1650 ± 79 |
| CCN(CC)CC [triethylamine] + CCCCCC[N+](C)(C)C.O=S(=O)([N-]S(=O)(=O)C(F)(F)F)C(F)(F)F | 4.53 ± 0.21 | 4.83 ± 0.22 | 5.04 ± 0.23 |  |  |
| CCN(CC)CC [triethylamine] + CCn1cc[n+](C)c1.N#CN=C=[N-] | 9.09 ± 0.42 |  |  | 35.8 ± 1.7 | 131 ± 6.2 |
| CCCCCCCCCCC [undecane] + CCCCCC[N+](C)(C)C.O=S(=O)([N-]S(=O)(=O)C(F)(F)F)C(F)(F)F | 51.2 ± 2.4 | 42 ± 2 | 39.7 ± 1.8 |  |  |
| CCCCCCCCCCC [undecane] + CCn1cc[n+](C)c1.N#CN=C=[N-] | 1030 ± 50 |  |  | 926 ± 44 | 834 ± 40 |
